The source of these data is patent publication US11667645B2, “Granzyme B directed imaging and therapy” (CytoSite Biopharma Inc., priority 2018, dated 2023).

For series [1], the target named is Granzyme B (human lymphocytes) (Homo sapiens (Human), UniProt P10144). As to the kind of experiment: human Granzyme B biochemical assay. Put shortly:
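Enzyme (10 nM working stock, assay buffer with 0.1% BSA) pre-incubated with compound for 30 min at 22 °C, then Ac-IETD-AFC (800 µM working stock) added for 60 min at 22 °C in the dark. Fluorescence read at Ex 400/Em 505 nm; 8-point 3.16-fold series (40 µM top working stock); IC50 from % inhibition versus standard-inhibitor and DMSO controls.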

Series [2] in a line: metabolic stability assay using liver microsomes. In kind it is in vitro ADME. Conditions: human liver microsomes, with NRS at 37° C. As to the method: In addition, compounds of Formula I-VIII described above are also tested in the metabolic stability assay using liver microsomes, as provided below.
Buffer pH7.4: Prepare 1 (M) KH2PO4 and 1 (M) K2HPO4. Titrate 1(M) K2HPO4 with 1 (M) KH2PO4 to obtain pH 7.40. Dilute this buffer 10 fold in Water (30 ml buffer+270 ml of water) to obtain 100 mM phosphate buffer. Adjust pH to 7.40±0.02 using 5(N) HCl or 5(N) NaOH.
NADPH Regeneration System (NRS): Prepare a solution containing 13 mM NADP, 33 mM Glucose-6-phosphate, 33 mM MgCl2 and 4 U/ml Glucose-6-phosphate dehydrogenase in buffer.
Liver Microsome (LM) suspension: Thaw LM vial on ice, then mix 1.0 ml LM (20 mg/ml) with 19 ml buffer [final LM Conc: 1 mg/ml]
LM+NRS suspension: Mix 5.0 ml NRS with 20 ml LM suspension [final LM Conc: 0.8 mg/ml]
System suitability standard: a synthesized compound having Mol wt 686.2 used as System suitability standard. Dissolve this compound in ice-cold acetonitrile to obtain concentration of 0.1 μg/ml and store at 4° C.
Compound Stock: 10 mM in DMSO
Sub stock (100 μM): 4 μl of 10 mM Compound Stock+[…] Acetonitrile
Working plate (2 μM): 10 μl of 100 μM Sub stock+490 μl buffer
Incubate all plastic materials including tips at 37° C. overnight.
Incubate LM suspension and NRS at 37° C. for 15 min before use.
Add 40 μl buffer to the wells of blank plate.
Add 40 μl compound (from working plate) to 0, 5, 10, 20, 30 and 60 min plates.
Initiate reaction by adding 40 μl of LM+NRS suspension in each plate.
Terminate reaction by adding 240 μl ice-cold acetonitrile containing system suitability standard at designated time points. For T=0 add 240 μl ice-cold acetonitrile containing system suitability standard before LM+NRS addition.
Centrifuge (3500 rpm, 20 min and 15° C.) the plates.
Mix 110 μl supernatant with 110 μl water and quantitate amount of Compound in the solution using LC-MS/MS.
For Scaled CLint & Predicted CL use the relevant physiological parameters, as applicable.
Human LM: Corning, Cat #25117
Mouse LM: Xenotech, Cat #M1000
(2) Volumes mentioned in the protocol are representative values and may change depending on number of test compounds.
(3) It is assumed that the compounds are chemically stable in the assay system/buffer.
The metabolic stability assay described above can be performed using different test concentrations, LM Concentrations, or time points.
Certain compounds of this disclosure were tested in the microsomal stability assay provided above.
(Microsomes from liver hold many membrane-bound enzymes, among them those of drug oxidation.)

Setting [3] is: Granzyme B IC50 as repeated in Table 7, read-out: IC50.
Where [4] appears, read: Granzyme B (human lymphocytes) 5 nM, substrate Ac-IETD-AFC 200 μM, Cpd incubation with enzyme 30 mins, 22° C., read time 60 mins, read-out: IC50.

Molecules are shown by their SMILES. Where two headings read alike, the source gives them in different places.

Granzyme B (human lymphocytes), sequence (P10144 21-247): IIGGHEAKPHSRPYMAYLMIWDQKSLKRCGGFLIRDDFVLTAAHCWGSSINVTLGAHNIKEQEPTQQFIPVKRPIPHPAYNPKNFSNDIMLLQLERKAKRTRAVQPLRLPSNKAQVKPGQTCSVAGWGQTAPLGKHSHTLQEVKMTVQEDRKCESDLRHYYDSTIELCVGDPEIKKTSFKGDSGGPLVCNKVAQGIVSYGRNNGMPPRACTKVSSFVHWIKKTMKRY

As usually defined, the IC50 is the midpoint of a concentration-inhibition curve. Turning to `CC(C)[C@H](NC(=O)Cc1csc2ccccc12)C(=O)N[C@H]1CCc2cccc3c2N(C1=O)[C@H](C(=O)NCc1c[nH]nn1)C3` [Compound C003, (2S,5S)-5-[(S)-2-(2-Benzo[b]thiophen-3-yl-acetylamino)-3-methyl-butyrylamino]-4-oxo-1,2,4,5,6,7-hexahydro-azepino[3,2,1-hi]indole-2-carboxylic acid (1H-[1,2,3]triazol-4-ylmethyl)-amide], the IC50 in series [1] (setting [3]) was 1 to 300 nM. The “HLM % remaining @ 30 min” value in series [2] is “* (“*” indicates a remaining percentage of 0-30%)”.

With `CC[C@H](C)[C@H](NC(=O)c1ccccc1)C(=O)N[C@H]1CCc2cccc3c2N(C1=O)[C@H](C(=O)NCc1c[nH]nn1)C3` [Compound C039, (2S,5S)-5-((2S,3S)-2-Benzoylamino-3-methyl-pentanoylamino)-4-oxo-1,2,4,5,6,7-hexahydro-azepino[3,2,1-hi]indole-2-carboxylic acid (1H-[1,2,3]triazol-4-ylmethyl)-amide], the IC50 in series [1] (setting [4]) and in series [1] (setting [3]) was 1 to 300 nM throughout. Further, the “HLM % remaining @ 30 min” value in series [2] is reported as “** (“**” indicates a remaining percentage of 31-70%)”.

Consider `CC[C@@H](C)[C@H](NC(=O)Cc1csc2ccccc12)C(=O)N[C@H]1CCc2cccc3c2N(C1=O)[C@H](C(=O)NCc1c[nH]nn1)C3` [Compound C054, (2S,5S)-5-[(2S,3R)-2-(2-Benzo[b]thiophen-3-yl-acetylamino)-3-methyl-pentanoylamino]-4-oxo-1,2,4,5,6,7-hexahydro-azepino[3,2,1-hi]indole-2-carboxylic acid (1H-[1,2,3]triazol-4-ylmethyl)-amide], for which the IC50 in series [1] (setting [4]) and in series [1] (setting [3]) was 1 to 300 nM each time. For the same compound, the “HLM % remaining @ 30 min” value in series [2] is “* (“*” indicates a remaining percentage of 0-30%)”.

Regarding `CC[C@H](C)[C@H](NC(C)=O)C(=O)N[C@H]1COc2cccc3c2N(C1=O)[C@H](C(=O)NCc1c[nH]nn1)C3` [Compound C097, (1S,8S)-8-((2S,3S)-2-Acetylamino-3-methyl-pentanoylamino)-9-oxo-1,2,8,9-tetrahydro-7H-6-oxa-9a-aza-benzo[cd]azulene-1-carboxylic acid (1H-[1,2,3]triazol-4-ylmethyl)-amide], the IC50 in series [1] (setting [4]) and in series [1] (setting [3]) was 1 to 300 nM each time. In addition, the “HLM % remaining @ 30 min” value in series [2] is “*** (the symbol “***” indicates a remaining percentage of 71-100%)”.

Take `CC[C@H](C)[C@H](NC(=O)COCCF)C(=O)N[C@H]1COc2cccc3c2N(C1=O)[C@H](C(=O)NCc1c[nH]nn1)C3` [Compound C099, (1S,8S)-8-{(2S,3S)-2-[2-(2-Fluoro-ethoxy)-acetylamino]-3-methyl-pentanoylamino}-9-oxo-1,2,8,9-tetrahydro-7H-6-oxa-9a-aza-benzo[cd]azulene-1-carboxylic acid (1H-[1,2,3]triazol-4-ylmethyl)-amide]: the IC50 in series [1] (setting [4]) and in series [1] (setting [3]) was 1 to 300 nM throughout. The “HLM % remaining @ 30 min” value in series [2] is “*** (the symbol “***” indicates a remaining percentage of 71-100%)”.

Regarding `CC(C)[C@H](NC(=O)COCCF)C(=O)N[C@H]1CCc2cccc3c2N(C1=O)[C@H](C(=O)NCc1c[nH]nn1)C3` [Compound C056, (2S,5S)-5-{(S)-2-[2-(2-Fluoro-ethoxy)-acetylamino]-3-methyl-butyrylamino}-4-oxo-1,2,4,5,6,7-hexahydro-azepino[3,2,1-hi]indole-2-carboxylic acid (1H-[1,2,3]triazol-4-ylmethyl)-amide], the IC50 in series [1] (setting [4]) and in series [1] (setting [3]) was 1 to 300 nM in each case. Besides, the “HLM % remaining @ 30 min” value in series [2] was “*** (the symbol “***” indicates a remaining percentage of 71-100%)”.

In the case of `CC(C)[C@H](NC(=O)COCCF)C(=O)N[C@H]1COc2cccc3c2N(C1=O)[C@H](C(=O)NCc1c[nH]nn1)C3` [Compound C103, (1S,8S)-8-{(S)-2-[2-(2-Fluoro-ethoxy)-acetylamino]-3-methyl-butyrylamino}-9-oxo-1,2,8,9-tetrahydro-7H-6-oxa-9a-aza-benzo[cd]azulene-1-carboxylic acid (1H-[1,2,3]triazol-4-ylmethyl)-amide], the IC50 in series [1] (setting [4]) and in series [1] (setting [3]) was 1 to 300 nM each time. The “HLM % remaining @ 30 min” value in series [2] is “*** (the symbol “***” indicates a remaining percentage of 71-100%)”.

Turning to `CC[C@H](C)[C@H](NC(=O)c1ccc(F)nc1)C(=O)N[C@H]1CCc2cccc3c2N(C1=O)[C@H](C(=O)NCc1c[nH]nn1)C3` [Compound C140, (2S,5S)-5-{(2S,3S)-2-[(6-Fluoro-pyridine-3-carbonyl)-amino]-3-methyl-pentanoylamino}-4-oxo-1,2,4,5,6,7-hexahydro-azepino[3,2,1-hi]indole-2-carboxylic acid (1H-[1,2,3]triazol-4-ylmethyl)-amide], the IC50 in series [1] (setting [4]) and in series [1] (setting [3]) was 1 to 300 nM throughout. Moreover, the “HLM % remaining @ 30 min” value in series [2] is listed as “*** (the symbol “***” indicates a remaining percentage of 71-100%)”.

Regarding `CC[C@H](C)[C@H](NC(=O)CF)C(=O)N[C@H]1CCc2cccc3c2N(C1=O)[C@H](C(=O)NCc1c[nH]nn1)C3` [Compound C059, (2S,5S)-5-[(2S,3S)-2-(2-Fluoro-acetylamino)-3-methyl-pentanoylamino]-4-oxo-1,2,4,5,6,7-hexahydro-azepino[3,2,1-hi]indole-2-carboxylic acid (1H-[1,2,3]triazol-4-ylmethyl)-amide], the IC50 in series [1] and in series [1] (Granzyme B IC50 as repeated in Table 7) was 1 to 300 nM each time. Besides, the “HLM % remaining @ 30 min” value in series [2] is listed as “*** (the symbol “***” indicates a remaining percentage of 71-100%)”.

On to `CC[C@H](C)[C@H](NC(=O)Cc1csc2ccccc12)C(=O)N[C@H]1CCc2cccc3c2N(C1=O)[C@H](C(=O)NCc1c[nH]nn1)C3` [Compound C006, (2S,5S)-5-[(2S,3S)-2-(2-Benzo[b]thiophen-3-yl-acetylamino)-3-methyl-pentanoylamino]-4-oxo-1,2,4,5,6,7-hexahydro-azepino[3,2,1hi]indole-2-carboxylic acid (1H-[1,2,3]triazol-4-ylmethyl)-amide], for which the IC50 in series [1] (setting [4]) and in series [1] (setting [3]) was 1 to 300 nM in each case. In series [1] (isomers separated by prep HPLC or column chromatography), the “biological potency of separated isomer (in words)” value was “biologically potent”. In addition, the “HLM % remaining @ 30 min” value in series [2] was “* (“*” indicates a remaining percentage of 0-30%)”.

For `CC(=O)N[C@H](C(=O)N[C@H]1CCc2cccc3c2N(C1=O)[C@H](C(=O)N[C@@H](C)C(=O)O)C3)C(C)C` [Compound C089, (S)-2-{[(2S,5S)-5-((S)-2-Acetylamino-3-methyl-butyrylamino)-4-oxo-1,2,4,5,6,7-hexahydro-azepino[3,2,1-hi]indole-2-carbonyl]-amino}-propionicacid], the IC50 in series [1] (setting [4]) is greater than 5000 nM.

Take `CC[C@H](C)[C@H](NC(=O)c1cccnc1)C(=O)N[C@H]1CCc2cccc3c2N(C1=O)[C@H](C(=O)NCc1c[nH]nn1)C3` [Compound C067, (2S,5S)-5-{(2S,3S)-3-Methyl-2-[(pyridine-3-carbonyl)-amino]-pentanoylamino}-4-oxo-1,2,4,5,6,7-hexahydro-azepino[3,2,1-hi]indole-2-carboxylicacid (1H-[1,2,3]triazol-4-ylmethyl)-amide]: the half-maximal inhibitory concentration (IC50) in series [1] (setting [4]) lay within 1 to 300 nM.

With `CC(=O)N[C@@H](Cc1ccc(O)cc1)C(=O)N[C@H]1CCc2cccc3c2N(C1=O)[C@H](C(=O)NCc1c[nH]nn1)C3` [Compound C032, (2S,5S)-5-[(S)-2-Acetylamino-3-(4-hydroxy-phenyl)-propionylamino]-4-oxo-1,2,4,5,6,7-hexahydro-azepino[3,2,1-hi]indole-2-carboxylic acid(1H-[1,2,3]triazol-4-ylmethyl)amide], in series [1] (setting [4]), the IC50 was in the range of 1000 to 5000 nM.

For `CC(C)[C@H](NC(=O)Cc1ccccc1)C(=O)N[C@H]1CCc2cccc3c2N(C1=O)[C@H](C(=O)NCc1c[nH]nn1)C3` [Compound C014, (2S,5S)-5-((S)-3-Methyl-2-phenylacetylamino-butyrylamino)-4-oxo-1,2,4,5,6,7-hexahydro-azepino[3,2,1-hi]indole-2-carboxylic acid (1H-[1,2,3]triazol-4-ylmethyl)-amide], in series [1] (setting [4]), the IC50 was 1 to 300 nM.
